Legend:
[1] = biological target: T1, Mer (Homo sapiens, UniProt Q12866); experiment: LanthaScreen Eu kinase binding assay, Mer; details: Tracer 236
T1 construct: purchased Life Technologies
T1 sequence (Q12866 21-999): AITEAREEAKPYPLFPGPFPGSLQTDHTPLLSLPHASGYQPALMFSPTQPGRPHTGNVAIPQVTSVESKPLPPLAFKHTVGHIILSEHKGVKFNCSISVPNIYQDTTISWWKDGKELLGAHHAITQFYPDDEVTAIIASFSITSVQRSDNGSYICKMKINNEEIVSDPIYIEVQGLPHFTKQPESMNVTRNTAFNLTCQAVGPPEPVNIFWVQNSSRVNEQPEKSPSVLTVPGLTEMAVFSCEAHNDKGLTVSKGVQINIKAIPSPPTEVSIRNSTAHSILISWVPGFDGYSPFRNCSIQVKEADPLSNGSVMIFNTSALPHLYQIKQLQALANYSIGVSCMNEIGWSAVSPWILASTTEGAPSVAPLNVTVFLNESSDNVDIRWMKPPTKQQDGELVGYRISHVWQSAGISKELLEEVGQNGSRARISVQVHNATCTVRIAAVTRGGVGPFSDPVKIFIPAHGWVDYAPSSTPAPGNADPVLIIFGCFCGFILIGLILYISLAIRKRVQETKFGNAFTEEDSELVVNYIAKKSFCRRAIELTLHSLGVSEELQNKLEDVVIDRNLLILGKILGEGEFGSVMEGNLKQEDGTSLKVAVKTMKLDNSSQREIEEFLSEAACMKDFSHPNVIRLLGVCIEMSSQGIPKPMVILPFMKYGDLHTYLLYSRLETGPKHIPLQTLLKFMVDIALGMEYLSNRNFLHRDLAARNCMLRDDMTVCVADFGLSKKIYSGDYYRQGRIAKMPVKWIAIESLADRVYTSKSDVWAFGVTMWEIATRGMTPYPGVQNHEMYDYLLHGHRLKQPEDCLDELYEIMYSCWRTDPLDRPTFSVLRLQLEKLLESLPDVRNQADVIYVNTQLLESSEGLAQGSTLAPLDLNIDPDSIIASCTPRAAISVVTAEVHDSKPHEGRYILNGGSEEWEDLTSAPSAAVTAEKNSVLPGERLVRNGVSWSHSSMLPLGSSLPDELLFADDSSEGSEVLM

[2] = biological target: T2, Met (Homo sapiens, UniProt P08581); experiment: LanthaScreen Eu kinase binding assay, Met; details: Tracer 236, read-out: cMet kinase binding activity (Kd)
T2 construct: purchased Life Technologies
T2 sequence (P08581 25-1390): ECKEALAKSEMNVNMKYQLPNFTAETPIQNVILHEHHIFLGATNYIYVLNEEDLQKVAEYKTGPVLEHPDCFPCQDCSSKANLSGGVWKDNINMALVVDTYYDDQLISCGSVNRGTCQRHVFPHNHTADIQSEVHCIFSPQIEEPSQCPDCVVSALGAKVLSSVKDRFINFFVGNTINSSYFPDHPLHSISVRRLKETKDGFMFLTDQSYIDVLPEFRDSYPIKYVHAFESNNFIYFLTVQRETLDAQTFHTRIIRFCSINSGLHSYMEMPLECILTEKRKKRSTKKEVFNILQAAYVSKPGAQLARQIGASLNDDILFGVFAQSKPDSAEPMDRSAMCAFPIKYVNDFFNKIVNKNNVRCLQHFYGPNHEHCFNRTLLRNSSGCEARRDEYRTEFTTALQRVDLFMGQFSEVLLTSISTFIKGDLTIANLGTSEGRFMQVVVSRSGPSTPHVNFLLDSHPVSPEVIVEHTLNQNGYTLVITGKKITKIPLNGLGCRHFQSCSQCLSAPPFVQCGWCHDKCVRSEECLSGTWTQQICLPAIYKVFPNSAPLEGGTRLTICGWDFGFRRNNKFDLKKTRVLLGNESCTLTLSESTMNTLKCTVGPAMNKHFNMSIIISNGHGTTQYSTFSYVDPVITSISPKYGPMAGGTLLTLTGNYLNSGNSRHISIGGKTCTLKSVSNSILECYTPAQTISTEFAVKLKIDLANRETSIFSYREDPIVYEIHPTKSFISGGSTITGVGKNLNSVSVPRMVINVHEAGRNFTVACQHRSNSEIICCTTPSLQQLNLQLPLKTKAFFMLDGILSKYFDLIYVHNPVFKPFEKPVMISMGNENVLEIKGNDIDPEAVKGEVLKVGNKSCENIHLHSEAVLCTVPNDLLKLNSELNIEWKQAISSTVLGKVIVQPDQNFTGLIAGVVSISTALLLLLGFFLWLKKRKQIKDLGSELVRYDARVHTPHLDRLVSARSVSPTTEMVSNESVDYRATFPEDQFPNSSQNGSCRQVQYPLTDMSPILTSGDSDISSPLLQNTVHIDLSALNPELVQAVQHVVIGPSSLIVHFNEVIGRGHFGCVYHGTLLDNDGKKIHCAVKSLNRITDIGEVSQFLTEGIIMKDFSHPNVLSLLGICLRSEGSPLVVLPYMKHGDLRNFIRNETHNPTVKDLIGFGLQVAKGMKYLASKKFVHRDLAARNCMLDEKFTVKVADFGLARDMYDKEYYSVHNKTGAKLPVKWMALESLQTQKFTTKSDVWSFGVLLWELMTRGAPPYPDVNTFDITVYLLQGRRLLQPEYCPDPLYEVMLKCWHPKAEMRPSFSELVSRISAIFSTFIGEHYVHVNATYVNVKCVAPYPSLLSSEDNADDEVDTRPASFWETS

[3] = biological target: T3, TYRO3 (Homo sapiens, UniProt Q06418); experiment: LanthaScreen Eu kinase binding assay, TYRO3; details: Tracer 236
T3 construct: purchased Life Technologies
T3 sequence (Q06418 41-890): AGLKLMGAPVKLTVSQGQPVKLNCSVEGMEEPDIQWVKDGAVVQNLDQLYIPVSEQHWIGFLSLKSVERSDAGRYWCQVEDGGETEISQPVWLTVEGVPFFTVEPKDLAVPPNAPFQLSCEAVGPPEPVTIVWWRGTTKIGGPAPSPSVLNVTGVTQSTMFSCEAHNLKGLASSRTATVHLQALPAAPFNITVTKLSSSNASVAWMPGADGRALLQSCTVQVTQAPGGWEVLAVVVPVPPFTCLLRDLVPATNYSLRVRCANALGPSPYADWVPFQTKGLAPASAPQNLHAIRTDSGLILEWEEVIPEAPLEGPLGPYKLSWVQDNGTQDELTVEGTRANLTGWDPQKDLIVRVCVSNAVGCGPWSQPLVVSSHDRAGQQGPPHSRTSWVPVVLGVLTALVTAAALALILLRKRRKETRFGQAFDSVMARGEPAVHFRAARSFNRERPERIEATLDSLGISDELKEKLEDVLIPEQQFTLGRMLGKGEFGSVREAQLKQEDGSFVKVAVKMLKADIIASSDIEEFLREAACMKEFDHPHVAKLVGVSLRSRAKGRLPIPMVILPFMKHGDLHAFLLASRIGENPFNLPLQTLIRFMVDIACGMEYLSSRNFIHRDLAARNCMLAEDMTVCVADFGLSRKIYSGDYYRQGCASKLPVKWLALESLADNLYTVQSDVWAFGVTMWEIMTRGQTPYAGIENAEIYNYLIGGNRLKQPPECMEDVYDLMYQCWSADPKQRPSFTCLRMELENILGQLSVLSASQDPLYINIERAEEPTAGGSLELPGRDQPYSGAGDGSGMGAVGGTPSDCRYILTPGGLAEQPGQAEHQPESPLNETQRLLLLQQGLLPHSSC

CCOc1cn(-c2c(C)cc(OC)cc2C)nc1C(=O)Nc1ccc(Oc2ccnc3cc(OC)c(OC)cc23)cn1 [Compound 92] showed a Kd [1] of less than 0.1 µM, a Kd [2] of less than 0.1 µM and a Kd [3] of less than 0.1 µM.
For CCOc1cn(-c2ccc(F)cc2)nc1C(=O)Nc1ccc(Oc2ccnc3cc(OC)c(OC)cc23)cn1 [Compound 89], the Kd [1] was less than 0.1 µM, the Kd [2] was less than 0.1 µM and the Kd [3] was less than 0.1 µM.
With CCOc1cn(-c2ccc(F)cc2C)nc1C(=O)Nc1ccc(Oc2ccnc3cc(OC)c(OC)cc23)c(Cl)c1 [Compound 82] the Kd [1] was less than 0.1 µM, the Kd [2] was less than 0.1 µM and the Kd [3] was less than 0.1 µM.
With CCOc1cn(C2CCOC2)nc1C(=O)Nc1ccc(Oc2ccnc3cc(OC)c(OC)cc23)cn1 (stereo not drawn) [Compound 76] the Kd [1] was less than 0.1 µM, the Kd [2] was 0.1 to 1 µM and the Kd [3] was less than 0.1 µM.
For CCOc1cn(CCC#N)nc1C(=O)Nc1ccc(Oc2ccnc3cc(OC)c(OC)cc23)cn1 [Compound 80], the Kd [1] was less than 0.1 µM, the Kd [2] was 0.1 to 1 µM and the Kd [3] was 0.1 to 1 µM.
In the case of CCOc1cn(C(C)CC#N)nc1C(=O)Nc1ccc(Oc2ccnc3cc(OC)c(OC)cc23)cn1 (stereo not drawn) [Compound 81], the Kd [1] is reported as less than 0.1 µM, the Kd [2] is reported as 0.1 to 1 µM and the Kd [3] is reported as 0.1 to 1 µM.
In the case of CCOc1cn(-c2ccccn2)nc1C(=O)Nc1ccc(Oc2ccnc3cc(OC)c(OC)cc23)cn1 [Compound 4], the Kd [1] is reported as less than 0.1 µM, the Kd [2] is reported as less than 0.1 µM and the Kd [3] is reported as 0.1 to 1 µM.
CCOc1cn(-c2ncc(N)cn2)nc1C(=O)Nc1ccc(Oc2ccnc3cc(OC)c(OC)cc23)cn1 [Compound 93] showed a Kd [1] of less than 0.1 µM, a Kd [2] of less than 0.1 µM and a Kd [3] of 0.1 to 1 µM.
Compound CCOc1cn(-c2ccc(Cl)cc2C)nc1C(=O)Nc1ccc(Oc2ccnc3cc(OC)c(OC)cc23)cn1 [Compound 87] has a Kd [1] of less than 0.1 µM, a Kd [2] of less than 0.1 µM and a Kd [3] of less than 0.1 µM.
Compound CCOc1cn(-c2cnccc2C)nc1C(=O)Nc1ccc(Oc2ccnc3cc(OC)c(OC)cc23)cn1 [Compound 79] has a Kd [1] of less than 0.1 µM, a Kd [2] of less than 0.1 µM and a Kd [3] of less than 0.1 µM.
In the case of CCOc1cn(-c2cccnc2)nc1C(=O)Nc1ccc(Oc2ccnc3cc(OC)c(OC)cc23)cc1F [Compound 85], the Kd [1] is reported as less than 0.1 µM, the Kd [2] is reported as less than 0.1 µM and the Kd [3] is reported as 0.1 to 1 µM.
CCOc1cn(-c2cccnn2)nc1C(=O)Nc1ccc(Oc2ccnc3cc(OC)c(OC)cc23)cn1 [Compound 5] showed a Kd [1] of less than 0.1 µM, a Kd [2] of less than 0.1 µM and a Kd [3] of less than 0.1 µM.
In the case of CCOc1cn(CCOC(F)F)nc1C(=O)Nc1ccc(Oc2ccnc3cc(OC)c(OC)cc23)cn1 [Compound 86], the Kd [1] is reported as less than 0.1 µM, the Kd [2] is reported as less than 0.1 µM and the Kd [3] is reported as 0.1 to 1 µM.
With CCOc1cn(C2CCCC2)nc1C(=O)Nc1ccc(Oc2ccnc3cc(OC)c(OC)cc23)cn1 [Compound 3] the Kd [1] was less than 0.1 µM, the Kd [2] was less than 0.1 µM and the Kd [3] was less than 0.1 µM.

From patent US10934274B2, “Quinoline derivatives as TAM RTK inhibitors” (Qurient Co., Ltd., priority 2015, dated 2021)
